Data published in paper PMC6683251, “Flavanol Bioavailability in Two Cocoa Products with Different Phenolic Content. A Comparative Study in Humans” (Nutrients, 2019).

Assay: Urinary excretion of flavanol metabolites (0-24 h) after a single serving of soluble cocoa product (HPLC-ESI-QToF-MS)
Assay type: in vivo, human
Settings: mean ± SD, n = 13; for Excreted in urine, Basal: basal urine (−2–0 h, before intake); for Excreted in urine, Total: 24 h urine
Protocol: They were non-smoker, non-vegetarian, non-pregnant women, who were not taking any medication or nutritional supplements, and were not suffering from any chronic pathology or gastrointestinal disorder. The sample size was estimated attending to similar previous bioavailability studies. The volunteers gave their informed consent prior to participation.
The present randomized, single-blind study was carried out at the Human Nutrition Unit (HNU) of the Institute of Food Science, Technology and Nutrition (ICTAN). Volunteers attended the HNU on two days, separated by two weeks. Three days previous to each visit, participants were instructed not to consume cocoa products (chocolate, soluble cocoa, etc.), juices, tea, wine, grape must, oranges, tangerines, apples, grapes, strawberries or other berries, beets, onions, soybeans and soy derivatives.
On each intervention day, volunteers arrived at the HNU after an overnight fast. […] The soluble cocoa products, either 15 g of CC or 25 g CC-PP, were dissolved in 200 mL of semi-skimmed milk following manufacturer’s preparation instructions. Plasma was separated by centrifugation (10 min, 3000 rpm, 4 °C) and stored at −80 °C until further analysis. […] A polyphenol-free breakfast, lunch and afternoon snack were provided 2 h, 4 h, and 8 h after consumption of cocoa products, and water and isotonic beverages were available ad libitum.
Urine samples were diluted with an equivalent volume of Milli-Q water (50%) and centrifuged at 14000 rpm (10 min, 4 °C). Supernatants were filtered (0.45 μm pore-size cellulose-acetate membrane filters) and a 5 µL aliquot was directly injected into the LC-ESI-QToF-MS equipment.
The test samples, either 30 μL of the plasma extract or 5 μL of diluted urine, were injected and separated using a mobile phase consisting of Milli-Q water (phase A) and acetonitrile (phase B), both containing 0.1% formic acid, at a flow rate of 0.3 mL/min. The mobile phase was initially programmed with 90% of solvent A and 10% of B. The elution program increased to 30% of solvent B in 10 min. Then, the initial conditions (10% solvent B) were recovered in 5 min and maintained for 5 min.
Due to the lack of standards for certain phase II metabolites, they were tentatively quantified using the calibration curves of their corresponding phenolic precursors. […] The rest of microbial metabolites identified, derivatives of hydroxyphenylpropionic, hydroxyphenylacetic, hydroxybenzoic and hippuric acids, were quantified using their respective commercially available standards. Urine concentration of the excreted metabolites was normalized by the volume excreted in each studied interval. […] Calibration curves were freshly prepared in a pool of both plasma and urine due to matrix effects.
Statistical analyses were carried out using the program SPSS (version 23.0, SPSS, Inc., IBM Company, New York, NY, USA). Significant differences between metabolites excreted in urine after consumption of CC and CC-PP cocoa products were evaluated based on non-parametric Wilcoxon test (p < 0.05). To determine the absorption and elimination of epicatechin metabolites after consumption of the soluble cocoa products, metabolite nutrikinetics were studied using the pharmacokinetic functions of Microsoft Excel, calculating the maximum concentration (Cmax), area under curve (AUC) and time to reach maximum concentration (Tmax). Data are expressed as mean ± standard deviation.

[1] = after CC-PP (68.25 mg flavanols)

| Compound | Excreted in urine, Basal (CC intervention) [µmol] | Excreted in urine, Basal (CC-PP intervention) | Excreted in urine, Total (after CC (19.80 mg flavanols)) | Excreted in urine, 0–4 h (after CC (19.80 mg flavanols)) | Excreted in urine, 4–8 h (after CC (19.80 mg flavanols)) | Excreted in urine, 8–12 h (after CC (19.80 mg flavanols)) | Excreted in urine, 12–24 h (after CC (19.80 mg flavanols)) | Excreted in urine, Total [1] | Excreted in urine, 0–4 h [1] | Excreted in urine, 4–8 h [1] | Excreted in urine, 8–12 h [1] | Excreted in urine, 12–24 h [1] |
| --- | --- | --- | --- | --- | --- | --- | --- | --- | --- | --- | --- | --- |
| Hydroxybenzoic acid [Hidroxybenzoic acid] | 0.188 ± 0.041 | 0.212 ± 0.037 µmol | 0.798 ± 0.162 µmol | 0.145 ± 0.027 µmol | 0.200 ± 0.051 µmol | 0.070 ± 0.018 µmol | 0.195 ± 0.025 µmol | 1.380 ± 0.365 µmol | 0.396 ± 0.060 µmol | 0.298 ± 0.036 µmol | 0.172 ± 0.063 µmol | 0.302 ± 0.169 µmol |
| O=C1CCC(Cc2cccc(O)c2)O1 (stereo not drawn) [HPVL, 5-(3′-Hydroxyphenyl)-γ-valerolactone] |  |  | <L.Q. * |  | <L.Q. | <L.Q. | <L.Q. | 0.104 ± 0.041 µmol | <L.Q. | 0.104 ± 0.041 µmol | <L.Q. | <L.Q. |
| O=C1CCC(Cc2cccc(OC3OC(C(=O)O)C(O)C(O)C3O)c2)O1 (stereo not drawn) [PVL-3′glucuronide, 5-Phenyl-γ-valerolactone-3′-glucuronide] |  | <L.Q. | 0.438 ± 0.255 µmol | <L.Q. | 0.233 ± 0.155 µmol | 0.126 ± 0.078 µmol | 0.079 ± 0.022 µmol | 1.316 ± 0.648 µmol | 0.108 ± 0.045 µmol | 0.521 ± 0.191 µmol | 0.179 ± 0.063 µmol | 0.508 ± 0.349 µmol |
| O=C(O)CCc1ccc(O)cc1 [Hydroxyphenylpropionic acid] | 0.118 ± 0.023 | 0.074 ± 0.013 µmol | 0.883 ± 0.154 µmol | 0.226 ± 0.046 µmol | 0.259 ± 0.043 µmol | 0.077 ± 0.018 µmol | 0.203 ± 0.025 µmol | 1.204 ± 0.243 µmol | 0.350 ± 0.038 µmol | 0.356 ± 0.076 µmol | 0.140 ± 0.041 µmol | 0.284 ± 0.075 µmol |
| O=C(O)c1ccc(O)c(O)c1 [Protocatechuic acid, 3,4-Dihydroxybenzoic acid] | 0.161 ± 0.071 | 0.088 ± 0.014 µmol | 0.959 ± 0.217 µmol | 0.227 ± 0.142 µmol | 0.373 ± 0.237 µmol | 0.094 ± 0.047 µmol | 0.104 ± 0.044 µmol | 0.528 ± 0.105 µmol | 0.105 ± 0.016 µmol | 0.113 ± 0.020 µmol | 0.095 ± 0.040 µmol | 0.127 ± 0.015 µmol |
| COc1ccc([C@H]2Oc3cc(O)cc(OS(=O)(=O)O)c3C[C@H]2O)cc1O (single isomer, unassigned) [Epicatechin-methoxy-sulfate (isomer 3), Epicatechin-methoxy-sulfate] |  |  | 0.758 ± 0.125 µmol | 0.473 ± 0.089 µmol | 0.285 ± 0.036 µmol | <L.Q. |  | 2.354 ± 0.402 µmol | 1.702 ± 0.243 µmol | 0.652 ± 0.148 µmol | <L.Q. | <L.Q. |
| COc1ccc(/C=C/C(=O)O)cc1O [Isoferulic acid] | 0.170 ± 0.137 | <L.Q. | 0.522 ± 0.290 µmol | 0.086 ± 0.028 µmol | 0.096 ± 0.040 µmol | 0.088 ± 0.069 µmol | 0.082 ± 0.016 µmol | 0.686 ± 0.356 µmol | 0.164 ± 0.044 µmol | 0.160 ± 0.066 µmol | 0.152 ± 0.094 µmol | 0.210 ± 0.152 µmol |
| Epicatechin-3′-methoxy-glucuronide |  |  | <L.Q. * | <L.Q. | <L.Q. |  |  | 0.121 ± 0.036 µmol | 0.121 ± 0.036 µmol | <L.Q. | <L.Q. |  |
| O=C(O)Cc1cccc(O)c1 [Hydroxyphenylacetic acid, 3-Hydroxyphenylacetic acid] | 0.369 ± 0.077 | 0.585 ± 0.070 µmol | 2.208 ± 0.328 µmol | 0.408 ± 0.084 µmol | 0.605 ± 0.092 µmol | 0.225 ± 0.052 µmol | 0.600 ± 0.100 µmol | 2.862 ± 0.654 µmol | 0.631 ± 0.140 µmol | 0.678 ± 0.231 µmol | 0.434 ± 0.070 µmol | 0.534 ± 0.143 µmol |
| O=C(O)CCc1ccc(O)c(O)c1 [3,4-Dihydroxyphenylpropionic acid] | 0.117 ± 0.024 | 0.213 ± 0.031 µmol | 0.866 ± 0.148 µmol | 0.217 ± 0.051 µmol | 0.243 ± 0.039 µmol | 0.074 ± 0.017 µmol | 0.215 ± 0.016 µmol | 1.117 ± 0.131 µmol | 0.256 ± 0.027 µmol | 0.238 ± 0.028 µmol | 0.109 ± 0.016 µmol | 0.301 ± 0.029 µmol |
| O=C(O)CCC(O)Cc1ccc(O)c(O)c1 (stereo not drawn) [HDHPVA, 4-Hydroxy-5-(3′,4′-dihydroxyphenyl)valeric acid] |  |  | <L.Q. |  | <L.Q. | <L.Q. | <L.Q. | <L.Q. | <L.Q. | <L.Q. | <L.Q. | <L.Q. |
| COc1cc(CCC(=O)O)ccc1O [3-Methoxy-4-hydroxyphenylpropionic acid] | 0.104 ± 0.027 | 0.077 ± 0.032 µmol | 0.248 ± 0.071 µmol | 0.144 ± 0.044 µmol | <L.Q. | <L.Q. | <L.Q. | 0.461 ± 0.138 µmol | 0.175 ± 0.054 µmol | <L.Q. | <L.Q. | 0.199 ± 0.052 µmol |
| COc1cc(CC(=O)O)ccc1O [3-Methoxy-4-hydroxyphenylacetic acid] | 0.103 ± 0.014 | 0.198 ± 0.071 µmol | 0.398 ± 0.118 µmol | 0.099 ± 0.054 µmol | 0.093 ± 0.028 µmol | <L.Q. | 0.103 ± 0.022 µmol | 0.648 ± 0.178 µmol | 0.188 ± 0.026 µmol | 0.124 ± 0.050 µmol | <L.Q. | 0.138 ± 0.016 µmol |
